Measurements reported in US20110160311A1, “Sweetness Enhancers, Compositions Thereof, and Methods for Use” (The Coca-Cola Company, priority 2009, published 2011).

Assays:
[1] = Sweetness enhancement of glucose, fructose or sucrose at 6% SE in water by additive at its threshold level; type: in vivo, human; details: for Sweetness of the composition after enhancement: from about 6% SE (sucrose control), REB C at 100 ppm, the other compound at 25 ppm
[2] = Sweetness detection threshold level in water, multi-sip and swallow taste method; type: in vivo, human; details: for Sweetness Detection Threshold Level: in water at room temperature, single assessor; for Sweetness Threshold Level: estimation sweetness/off-taste threshold in water at room temperature (RT)
From the text: As used herein, the terms “sweetness threshold,” “sweetness recognition threshold,” and “sweetness detection threshold” are understood to mean the level at which the lowest known concentration of a certain sweet compound that is perceivable by the human sense of taste and it can vary from person to person. For example, a typical sweetness threshold level for sucrose in water can be 0.5%.
Further for example, the at least one sweetness enhancer to be used can be assayed in water at least 25% lower and at least 25% higher than the sucrose detection level of 0.5% in water to determine the sweetness threshold level.
(§1) A first sip (approximately 2.2 mL) of a ca. 20 mL control composition was taken and swallowed. After waiting for a time ranging from 15 to 25 seconds, a second sip of control composition was taken and swallowed, and the sweetness and/or taste of the control composition was noted. After waiting for a time ranging from 15 to 25 seconds, these steps were repeated with a comparative composition. The sweetness and taste differences between the control and the comparative composition were noted. For each tested composition, this cycle was repeated once to confirm the initial findings. All samples were measured at average 23.0° C.±1° C. between samples for consistent comparison and to minimize any effects of temperature on the perceived taste or sweetness of the composition.
(§2) To perform the taste test, three sweetener samples were paired with one additive and taste tested as described above. A three minute break was taken before tasting another three sweetener samples paired with a different additive. Up to 10 additives per day were used to minimize a fatigue factor. Before tasting, at least 1.5 hours elapsed after ingestion of any food, drink or nicotine. The tests were repeated on a different date to validate the initial findings.
The sweetness detection threshold levels for 21 entities were measured by a single assessor in water at room temperature according to the multi-sip and swallow taste method described herein.

[3] = Sweetness enhancement of glucose, fructose or sucrose at 6% SE in water by additive at its threshold level; type: in vivo, human; set-up: key: T: Slight thicker-like sweetness (not intensity factor).; No difference; N(S+): No difference but slightly more sweet (0.5-0.75%); +S: More sweetness intensity (~1.0% SE); ++S: Much more sweetness intensity (~2.0% SE); details: room temperature, additive at its Table 1 threshold level; for Sensory result versus FRU 55,000 ppm: fructose at 6% SE in water; for Sensory result versus GLU 99,000 ppm: glucose at 6% SE in water; for Sensory result versus SUC 60,000 ppm: sucrose at 6% SE in water
Procedure: as §1, §2
The twenty-one entities above were combined in a concentration at the sweetness detection threshold level listed in Table 1, with one of Glucose (GLU), Fructose (FRU), and Sucrose (SUG), each at a fixed SE (Sucrose Equivalents) level of 6%. The sweetness of the compositions was measured as described above at room temperature.

[4] = By-products of 500 ppm REB A after two months of storage in phosphoric acid at RT; type: physicochemical; details: approximated concentration of by-product of 500 ppm REB A
[5] = in water; cited from earlier work
[6] = Rubusoside sweetness detection threshold estimation in water, sip-and-spit, 5 subjects; type: in vivo, human; details: 50 ppm solution in purified water, all 5 subjects
Procedure: Preliminarily, a 1,000 ppm steviol glycoside solution was prepared by dissolution of 20 mg steviol glycoside in 20 mL purified water. An aliquot (10 mL) of this solution was diluted to 20 mL with water to obtain a 500 ppm solution. Additional 1:1 serial dilutions were used to obtain 250, 125, 62.5, 31.2 and 15.6 ppm solutions. Those solutions were then tasted in ascending order of concentration by one experienced subject by using the sip-and-spit protocol disclosed herein. The subject's estimated sweetness detection threshold was determined to be at the lowest concentration at which sweetness was definitely observed.
Thereafter, a 200 ppm solution of rubusoside was prepared by dissolution of 20 mg rubusoside in 200 mL purified water. An aliquot (50 mL) of this solution then was diluted to 100 mL with water to obtain a 100 ppm solution. Additional 1:1 serial dilution steps were used to prepare 50 and 25 ppm solutions. These solutions then were tasted in ascending order of concentration by 5 experienced subjects by the sip-and-spit protocol.

[7] = Descriptive sensory analysis of lemon-lime carbonated beverages at 4° C.; type: in vivo, human; details: 135 ppm rubusoside added to 8% HFSS lemon-lime beverage
Procedure: Three test products were prepare: a control beverage comprising 10.52% High Fructose Starch Syrup (HFSS), a lemon-lime prototype comprising 8% HFSS and 135 ppm rubusoside, and a standard lemon-lime beverage comprising 8% HFSS.
As part of study design, a full sensorial profile was determined using a Complete Block Design (CBD). All products were randomized and balanced. Each assessor evaluated all products sequentially. Each product was evaluated three times by each assessor. Eight minute time breaks between tasting samples. Unsalted cracker, 0.75% saline solution and mineral grade water was used as a mouth rinse and refresher before each sample. Each assessor was served 75 ml of chilled beverage (4° C.+/−1° C.). Table 5 provides the categories and the descriptions of the various attributes identified in Table 4.

[8] = Sweetness recognition threshold in lemon-lime carbonated beverage at 4° C.; type: in vivo, human; details: lemon-lime carbonated beverage (citric buffer) at 4° C., average of six subjects
Procedure: Preliminarily, multi-levels of steviol glycoside solution in lemon-lime beverage at 4° C. were prepared by mixing the calculated formulations to obtain 450, 350, 250 and 150 ppm of steviol glycoside solutions. Those solutions were then tasted by six experienced subjects by using the sip-and-spit protocol disclosed herein. The sweetness recognition threshold for rubusoside was determined to be averaged 150 ppm. For sweetness enhancement test of rubusoside in lemon-lime beverage, it was decided to use a 10 percent less of sweetness recognition threshold or 135 ppm (150−10%=135).

[9] = Rubusoside and 6% sucrose sweetness enhancement test; type: in vivo, human; details: 50 mg rubusoside in 1 L of 6% sucrose; scale of 6-10 relative to 6-10% sucrose references; 6% sucrose reference rated 6.1
Procedure: Reference samples were prepared at 6, 7, 8, 9 and 10% sucrose (w/v). The test sample was prepared by addition of 50 mg of rubusoside to 1 L of 6% sucrose. The test sample was mixed with five sucrose control samples of various concentrations in the 6-10% sucrose range. Each of the six samples was then individually rated for sweetness intensity on a scale of 6-10 relative to the 6-10% sucrose references.
The Sweetness Intensity Rating ranged from 6 to 10, for each subject.

Levels After 2 Month of Storage [4] | Compound | Sweetness of the composition after enhancement [1] | Sweetness Detection Threshold Level [2] | Sensory result versus FRU 55,000 ppm [3] | Sensory result versus GLU 99,000 ppm [3] | Sensory result versus SUC 60,000 ppm [3] | Sweetness Threshold Level [2] | Typical sweetness threshold level [5] | Enhancement of the 6% sucrose ([1]; rubusoside at 50 ppm, 6% sucrose in water) | Taste of the solution [6] | Times as sweet as the prototype without rubusoside [7] | Sweetness equivalence ([7]; interpolation of the data) | Sweetness recognition threshold [8] | Average sweetness intensity rating [9]
 | C=C1CC23CCC4C(C)(C(=O)OC5OC(CO)C(O)C(O)C5O)CCCC4(C)C2CCC1(OC1OC(CO)C(O)C(OC2OC(CO)C(O)C(O)C2O)C1OC1OC(CO)C(O)C(OC2OC(CO)C(O)C(O)C2O)C1O)C3 [13-[(2-O-(3-O-α-D-glucopyranosyl)-β-D-glucopyranosyl-3-O-β-D-glucopyranosyl-β-D-glucopyranosyl)oxy] kaur-16-en-18-oic acid β-D-glucopyranosyl ester] | about 7 % SE | 25 ppm | N(S+) (No difference but slightly more sweet (0.5-0.75%)) | N(S+) (No difference but slightly more sweet (0.5-0.75%)) | +S (More sweetness intensity (~1.0% SE)) |  |  |  |  |  |  |  | 
10 ppm | CC1(C(=O)OC2OC(CO)C(O)C(O)C2O)CCCC2(C)C3CCC4(OC5OC(CO)C(O)C(OC6OC(CO)C(O)C(O)C6O)C5OC5OC(CO)C(O)C(O)C5O)CC3(CCC12)CC4(C)O [13-[(2-O-β-D-glucopyranosyl-3-O-β-D-glucopyranosyl-β-D-glucopyranosyl)oxy]-16-hydroxy kauran-18-oic acid β-D-glucopyranosyl ester] |  | 700 ppm | N | N | N | 700 ppm |  |  |  |  |  |  | 
1 ppm | CC1=CC23CCC4C(C)(C(=O)O)CCCC4(C)C2CCC1(OC1OC(CO)C(O)C(OC2OC(CO)C(O)C(O)C2O)C1OC1OC(CO)C(O)C(O)C1O)C3 [13-[(2-O-β-D-glucopyranosyl-3-O-β-D-glucopyranosyl-β-D-glucopyranosyl)oxy] kaur-15-en-18-oic acid] |  | 35 ppm | N | N | N | 35 ppm |  |  |  |  |  |  | 
 | OC[C@H]1O[C@@](CO)(O[C@H]2O[C@H](CO)[C@@H](O)[C@H](O)[C@H]2O)[C@@H](O)[C@@H]1O [sucrose] |  |  |  |  |  |  | 0.5% |  |  |  |  |  | 
 | Rebaudioside C | about 7 % SE | 100 ppm | N(S+) (No difference but slightly more sweet (0.5-0.75%)) | N(S+) (No difference but slightly more sweet (0.5-0.75%)) | +S (More sweetness intensity (~1.0% SE)) |  |  |  |  |  |  |  | 
17 ppm | Rebaudioside B |  | 25 ppm | N | N | N | 25 ppm |  |  |  |  |  |  | 
 | C=C1C[C@@]23CC[C@H]4[C@@](C)(CCC[C@@]4(C)C(=O)O[C@@H]4O[C@H](CO)[C@@H](O)[C@H](O)[C@H]4O)[C@@H]2CC[C@]1(O[C@@H]1O[C@H](CO)[C@@H](O)[C@H](O)[C@H]1O)C3 [Rubusoside] |  | 50 ppm | N(S+) (No difference but slightly more sweet (0.5-0.75%)) | N(S+) (No difference but slightly more sweet (0.5-0.75%)) | ++S (Much more sweetness intensity (~2.0% SE)) |  |  | about 2 % SE | absence of taste | 1.15 times | 9.2 % HFSS | 150 ppm | 7.9
